{"source": "patent US6551582B2", "about": "“Deodorant composition” (Sumitomo Chemical Company, Limited, priority 2001, dated 2003)", "test": "Test Example 1: deodorant effect of sprayed liquid formulations against ammonia gas in a flask", "details": "after 30 minutes, about 20° C.", "method": "Into a glass Erlenmeyer flask (1L-volume), 1 mL of 1.8% aqueous solution of ammonia was placed at room temperature (about 20° C.). After the flask was sealed with a rubber stopper and shaken to be filled with ammonia gas, the concentration of ammonia was measured with a gas detector tube (No. 3HM, Gastec Corporation).\nNext, 1 mL of each formulation obtained in Production example 1 was sprayed into the flask. The concentration of ammonia was measured with a gas detector tube (No. 3HM, Gastec Corporation) after 30 minutes. A control solution (1 mL) of a mixed solvent without the present deodorant compound was added into an Erlenmeyer flask (1 L-volume) containing ammonia gas, and then the […] of ammonia was measured with the same method after 30 minutes.\nDehydroacetic acid was formulated in the same manner as Production example 1, and then comparative test was carried out by the same method.\nThe formulations obtained in Production example 2 and 3 were provided to the same test.\nDeodorant rates were calculated by formula 1. [formula]", "data": [{"substance": "dehydroacetic acid", "values": [{"measurement": "Deodorant rate (%) Production example 1", "setting": "1 mL formulation of Production example 1 (5 parts compound, 80 parts ethanol, 15 parts water) sprayed", "result": 20, "unit": "%"}, {"measurement": "Deodorant rate (%) Production example 2", "setting": "1 mL formulation of Production example 2 (5 parts compound, 80 parts isopropyl alcohol, 15 parts water) sprayed", "result": 25, "unit": "%"}, {"measurement": "Deodorant rate (%) Production example 3", "setting": "1 mL formulation of Production example 3 (5 parts compound, 80 parts glycerin, 15 parts water) sprayed", "result": 25, "unit": "%"}]}]}
